Experimental data: patent publication US12084462B2, “Spiro bicyclic inhibitors of menin-MLL interaction” (Janssen Pharmaceutica NV, priority 2016, dated 2024)

Test system: MV-4-11
Experiment: Proliferation assay (spheroid assay) MV-4-11
Format: cell-based, human
Settings: Homo sapiens, MV4-11, MV-4-11; averaged values; read-out: Spheroid assay MV-4-11 (IC50 (μM))
Description: (§1) The anti-proliferative effect of menin/MLL protein/protein interaction inhibitor test compounds was assessed in human leukemia cell lines. The cell lines MV-4-11 and MOLM14 harbor MLL translocations and express the MLL fusion proteins MLL-AF4 and MLL-AF9, respectively, as well as the wildtype protein from the second allele. […] K562 and KG1 were used as a control cell lines containing two MLL wildtype alleles in order to exclude compounds that display general cytotoxic effects.
(§2) MV-4-11 and MOLM14 were cultured in RPMI-1640 (Sigma Aldrich) supplemented with 10% fetal bovine serum (HyClone), 2 mM L-glutamine (Sigma Aldrich) and 50 μg/ml gentamycin (Gibco). K562 were propagated in RPMI-1640 (Sigma Aldrich) supplemented with 20% fetal bovine serum (HyClone), 2 mM L-glutamine (Sigma Aldrich) and 50 μg/ml gentamycin (Gibco). KG1 were cultured in Iscove's MDM (Gibco) supplemented with 20% fetal bovine serum (HyClone), 2 mM L-glutamine (Sigma Aldrich) and 50 μg/ml gentamycin (Gibco).
(§3) In order to assess the anti-proliferative effects, 1,500 MV-4-11, 300 MOLM14, 750 K562 or 1,300 KG1 cells were seeded in 200 μl media per well in 96-well round bottom, ultra-low attachment plates (Costar, catalogue number 7007). Cell seeding numbers were chosen based on growth curves to ensure linear growth throughout the experiment. Test compounds were added at different concentrations and the DMSO content was normalized to 0.3%. Cells were incubated for 8 d at 37° C. and 5% CO2. Spheroid like growth was monitored in real-time by live-cell imaging (IncuCyteZOOM, Essenbio, 4× objective) acquiring one image every four hours for 8 d. Confluence (%) as a measure of spheroid size was determined using an integrated analysis tool.
(§4) In order to determine the cumulative effect of the test compounds over time, the area under the curve (AUC) in a plot of confluence against time was calculated. Confluence at the beginning of the experiment (t=0) was used as baseline for the AUC calculation.
(§5) Absolute IC50 values were calculated according to the following procedure: % Control=(AUC sample/AUC control)*100 AUC control=mean AUC of control values (cells without compound/DMSO as vehicle control)
(§6) A non-linear curve fit was applied using the least squares (ordinary) fit method to the plot of % control versus compound concentration. Based on this, the absolute IC50 value (half maximal inhibitory concentration of the test compound causing an anti-proliferative effect of 50% relative to the vehicle control) was calculated.

SMILES | IC50
Cn1cc2c(n1)CCCC2N1CC2(CCN(c3ncnc4sc(CC(F)(F)F)cc34)C2)C1 (single isomer, unassigned) [Compound 137] | 10.1 µM
Cc1ccccc1CN1CC2(CCN(c3ncnc4sc(CC(F)(F)F)cc34)C2)C1 [Compound 45] | 3.4 µM
Cc1cccc(CN2CC3(CCN(c4ncnc5sc(CC(F)(F)F)cc45)C3)C2)c1 [Compound 46] | 4.1 µM
Cc1ccc(CN2CC3(CCN(c4ncnc5sc(CC(F)(F)F)cc45)C3)C2)cc1 [Compound 49] | 2.1 µM
Fc1ccccc1CN1CC2(CCN(c3ncnc4sc(CC(F)(F)F)cc34)C2)C1 [Compound 54] | 3.7 µM
Fc1cccc(CN2CC3(CCN(c4ncnc5sc(CC(F)(F)F)cc45)C3)C2)c1 [Compound 56] | 4.9 µM
CC(C)CN1CCC2(C1)CN(c1ncnc3sc(CC(F)(F)F)cc13)C2 [Compound 58] | 2.7 µM
FC(F)(F)Cc1cc2c(N3CCC4(CN(CCC5CCOCC5)C4)C3)ncnc2s1 [Compound 67] | 4.9 µM
FC(F)(F)Cc1cc2c(N3CCC4(CN(CCc5ccccc5)C4)C3)ncnc2s1 [Compound 69] | 1.2 µM
COCCn1cc(C(C(C)C)N2CC3(CCN(c4ncnc5sc(CC(F)(F)F)cc45)C3)C2)cn1 (centres unmarked) [Compound 71] | 1.1 µM
NCCn1cc(CN2CC3(CCN(c4ncnc5sc(CC(F)(F)F)cc45)C3)C2)cn1 [Compound 77] | 12.1 µM
CN1CC2(CC2)C[C@H]1C(=O)N1CC2(C1)CN(c1ncnc3sc(CC(F)(F)F)cc13)C2 [Compound 108] | > 15 µM
O=C([C@H]1CC2(CC2)CN1)N1CC2(C1)CN(c1ncnc3sc(CC(F)(F)F)cc13)C2 [Compound 109] | 8.1 µM
CO[C@@H]1CN[C@H](C(=O)N2CC3(C2)CN(c2ncnc4sc(CC(F)(F)F)cc24)C3)C1 [Compound 110] | 4 µM
CO[C@H]1CN[C@H](C(=O)N2CC3(C2)CN(c2ncnc4sc(CC(F)(F)F)cc24)C3)C1 [Compound 111] | 9.3 µM
C[C@@H](C1CCNCC1)N1CC2(CCN(c3ncnc4sc(CC(F)(F)F)cc34)C2)C1 [Compound 146] | 2.4 µM
C[C@H](C1CCNCC1)N1CC2(CCN(c3ncnc4sc(CC(F)(F)F)cc34)C2)C1 [Compound 147] | 8.2 µM
CC(C)C(C1CCNCC1)N1CC2(CCN(c3ncnc4sc(CC(F)(F)F)cc34)C2)C1 (centres unmarked) [Compound 148] | 0.33 µM
C[C@H](C1CNC1)N1CC2(CCN(c3ncnc4sc(CC(F)(F)F)cc34)C2)C1 [Compound 150] | 2 µM
CC(C)C(C1CCOCC1)N1CC2(CCN(c3ncnc4sc(CC(F)(F)F)cc34)C2)C1 (centres unmarked) [Compound 156] | 0.79 µM
Cc1nn(C)cc1C(C(C)C)N1CC2(CCN(c3ncnc4sc(CC(F)(F)F)cc34)C2)C1 (centres unmarked) [Compound 161] | 4.2 µM
CC(C)[C@@H](C1CCOCC1)N1CC2(CCN(c3ncnc4sc(CC(F)(F)F)cc34)C2)C1 [Compound 162] | 3.1 µM
Cc1nn(C)cc1[C@@H](C(C)C)N1CC2(CCN(c3ncnc4sc(CC(F)(F)F)cc34)C2)C1 [Compound 166] | 2.4 µM
CC(C)[C@@H](C1CCNCC1)N1CC2(CCN(c3ncnc4sc(CC(F)(F)F)cc34)C2)C1 [Compound 169] | 3.5 µM
CC(Cc1cc(F)cc(F)c1)N1CC2(CCN(c3ncnc4sc(CC(F)(F)F)cc34)C2)C1 (centres unmarked) [Compound 170] | 4.3 µM

The next lines start with the values.

IC50 | SMILES
1.5 µM | CC(C)[C@H](c1cnn(C)c1)N1CC[C@]2(CCN(c3ncnc4sc(CC(F)(F)F)cc34)C2)C1 (single isomer, unassigned) [Compound 188]
0.71 µM | CC[C@@H](C)[C@H](c1cnn(C)c1)N1CC2(CCN(c3ncnc4sc(CC(F)(F)F)cc34)C2)C1 (single isomer, unassigned) [Compound 235]
1.2 µM | CC[C@@H](C)[C@@H](c1cnn(C)c1)N1CC2(CCN(c3ncnc4sc(CC(F)(F)F)cc34)C2)C1 (single isomer, unassigned) [Compound 237]
1.67 µM | CC(C)CCN1CC[C@@]2(CCN(c3ncnc4sc(CC(F)(F)F)cc34)C2)C1 (single isomer, unassigned) [Compound 293]
1.83 µM | CC(C)CCN1CC[C@]2(CCN(c3ncnc4sc(CC(F)(F)F)cc34)C2)C1 (single isomer, unassigned) [Compound 294]
4.89 µM | FC(F)(F)Cc1cc2c(N3CC[C@@]4(CCN(CCc5ccccc5)C4)C3)ncnc2s1 (single isomer, unassigned) [Compound 296]
4.23 µM | Fc1ccc(CCN2CC[C@@]3(CCN(c4ncnc5sc(CC(F)(F)F)cc45)C3)C2)cc1 (single isomer, unassigned) [Compound 298]
3.18 µM | Cn1cc(CN2CC[C@]3(CCN(c4ncnc5sc(CC(F)(F)F)cc45)C3)C2)cn1 (single isomer, unassigned) [Compound 299]
3.6 µM | CC(C)CC(C1CCC2(CCCC2)OC1)N1CC2(CCN(c3ncnc4sc(CC(F)(F)F)cc34)C2)C1 (single isomer, unassigned) [Compound 313]
3.1 µM | COc1ccccc1CC(C)N1CC2(CCN(c3ncnc4sc(CC(F)(F)F)cc34)C2)C1 (centres unmarked) [Compound 171]
2.9 µM | Cc1c(C(C(C)C)N2CC3(CCN(c4ncnc5sc(CC(F)(F)F)cc45)C3)C2)cnn1C (centres unmarked) [Compound 172]
3.2 µM | Cc1c([C@@H](C(C)C)N2CC3(CCN(c4ncnc5sc(CC(F)(F)F)cc45)C3)C2)cnn1C [Compound 173]
1.3 µM | CC(C)C[C@H](C1CCOCC1)N1CC2(CCN(c3ncnc4sc(CC(F)(F)F)cc34)C2)C1 [Compound 179]
1.9 µM | CC(C)C[C@@H](C1CCOCC1)N1CC2(CCN(c3ncnc4sc(CC(F)(F)F)cc34)C2)C1 [Compound 180]
1.3 µM | CC(Cc1cccc(F)c1)N1CC2(CCN(c3ncnc4sc(CC(F)(F)F)cc34)C2)C1 (centres unmarked) [Compound 183]
1.3 µM | FC(F)(F)Cc1cc2c(N3CC[C@@]4(CCN(CC5CCOCC5)C4)C3)ncnc2s1 [Compound 185]

IC50 | SMILES
1.3 µM | CC(C)C(c1cnn(C)c1)N1CC[C@]2(CCN(c3ncnc4sc(CC(F)(F)F)cc34)C2)C1 (some centres unmarked) [Compound 186]
1.4 µM | FC(F)(F)Cc1cc2c(N3CC[C@]4(CCN(CC5CCOCC5)C4)C3)ncnc2s1 [Compound 187]
> 15 µM | Cn1cc([C@H](C2CCNCC2)N2CC3(CCN(c4ncnc5sc(CC(F)(F)F)cc45)C3)C2)cn1 [Compound 202]
7.2 µM | CC(C)[C@@H](c1cnn(C)c1)N1CC2(CCN(c3ncnc4sc(CC(F)(F)F)cc34)C2)C1 [Compound 203]
1.9 µM | CC(C)C[C@@H](C1CNC1)N1CC2(CCN(c3ncnc4sc(CC(F)(F)F)cc34)C2)C1 [Compound 213]
0.2 µM | CC(C)C(C1CNC1)N1CC2(CCN(c3ncnc4sc(CC(F)(F)F)cc34)C2)C1 (centres unmarked) [Compound 222]
6.1 µM | CC(c1cn[nH]c1)N1CC2(CCN(c3ncnc4sc(CC(F)(F)F)cc34)C2)C1 (centres unmarked) [Compound 223]
1.3 µM | CCC(C1CNC1)N1CC2(CCN(c3ncnc4sc(CC(F)(F)F)cc34)C2)C1 (centres unmarked) [Compound 259]
2.4 µM | FC(F)(F)Cc1cc2c(N3CCC4(CN(CC5CCNCC5)C4)C3)ncnc2s1 [Compound 311]
0.73 µM | CC(Cc1ccc(C#N)cc1)N1CC2(CCN(c3ncnc4sc(CC(F)(F)F)cc34)C2)C1 (centres unmarked) [Compound 314]
1.09 µM | Cc1ccc(CC(C2CNC2)N2CC3(CCN(c4ncnc5sc(CC(F)(F)F)cc45)C3)C2)cc1 (centres unmarked) [Compound 318]
1.37 µM | COc1cccc(CC(C)N2CC3(CCN(c4ncnc5sc(CC(F)(F)F)cc45)C3)C2)c1 (centres unmarked) [Compound 320]
1.1 µM | COc1ccc(CC(C)N2CC3(CCN(c4ncnc5sc(CC(F)(F)F)cc45)C3)C2)cc1 (centres unmarked) [Compound 321]
1.7 µM | CC(Cc1ccccc1F)N1CC2(CCN(c3ncnc4sc(CC(F)(F)F)cc34)C2)C1 (centres unmarked) [Compound 322]
0.75 µM | CC(Cc1ccc(O)cc1)N1CC2(CCN(c3ncnc4sc(CC(F)(F)F)cc34)C2)C1 (centres unmarked) [Compound 323]
1.9 µM | Cc1ccc(CC(C)N2CC3(CCN(c4ncnc5sc(CC(F)(F)F)cc45)C3)C2)cc1 (centres unmarked) [Compound 324]

Test system: MOLM14
Experiment: Proliferation assay (spheroid assay) MOLM14
Format: cell-based, human
Settings: Homo sapiens, MOLM-14, 192 h, MOLM14 (MLL-AF9), 8 d, absolute IC50 from AUC of confluence; individual measurements (not averaged); read-out: (2) Spheroid assay MOLM14 (IC50 (μM))
Description: as §1, §2, §3, §4, §5, §6

SMILES | IC50
Cn1cc2c(n1)CCCC2N1CC2(CCN(c3ncnc4sc(CC(F)(F)F)cc34)C2)C1 (single isomer, unassigned) [Compound 138] | 7 µM

Same assay, conditions: Homo sapiens, MOLM-14, MOLM14; averaged values; read-out: Spheroid assay MOLM14 (IC50 (μM))

SMILES | IC50
Cn1cc2c(n1)CCCC2N1CC2(CCN(c3ncnc4sc(CC(F)(F)F)cc34)C2)C1 (single isomer, unassigned) [Compound 137] | > 15 µM
